Legend:
Format in all cases: cell-based
[1] = target: C-C chemokine receptor type 5 (Homo sapiens, UniProt P51681); assay: Displacement of [125I]-MIP-1- alpha from CCR5 expressed in CHO K1 cells by scintillation proximity assay
[2] = target: C-C chemokine receptor type 2 (Homo sapiens, UniProt P41597); assay: Displacement of [125I]-MIP-1alpha 125I]-MCP1 from CCR2 expressed in CHO ducX#98 cells by scintillation proximity assay
[3] = target: T1, C-C chemokine receptor type 3 (Homo sapiens, UniProt P51677); assay: Displacement of [125I]-eotaxin from CCR3 expressed in RBL-2H3 cells by scintillation proximity assay
T1 sequence (P51677 whole entry): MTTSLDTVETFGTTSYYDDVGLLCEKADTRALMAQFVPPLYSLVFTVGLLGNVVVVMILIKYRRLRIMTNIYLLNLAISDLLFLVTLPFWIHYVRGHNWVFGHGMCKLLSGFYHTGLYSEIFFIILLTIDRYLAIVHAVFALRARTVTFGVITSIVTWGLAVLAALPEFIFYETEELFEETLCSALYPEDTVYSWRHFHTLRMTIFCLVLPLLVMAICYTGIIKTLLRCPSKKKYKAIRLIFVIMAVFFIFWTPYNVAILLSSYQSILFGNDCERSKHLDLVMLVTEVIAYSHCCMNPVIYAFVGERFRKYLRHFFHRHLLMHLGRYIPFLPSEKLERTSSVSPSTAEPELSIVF

[4] = target: T2, C-C chemokine receptor type 1 (Homo sapiens, UniProt P32246); assay: Displacement of [125I]-MIP-1alpha 125I]-MCP1 from CCR1 expressed in CHO-K1 cells by scintillation proximity assay
T2 sequence (P32246 whole entry): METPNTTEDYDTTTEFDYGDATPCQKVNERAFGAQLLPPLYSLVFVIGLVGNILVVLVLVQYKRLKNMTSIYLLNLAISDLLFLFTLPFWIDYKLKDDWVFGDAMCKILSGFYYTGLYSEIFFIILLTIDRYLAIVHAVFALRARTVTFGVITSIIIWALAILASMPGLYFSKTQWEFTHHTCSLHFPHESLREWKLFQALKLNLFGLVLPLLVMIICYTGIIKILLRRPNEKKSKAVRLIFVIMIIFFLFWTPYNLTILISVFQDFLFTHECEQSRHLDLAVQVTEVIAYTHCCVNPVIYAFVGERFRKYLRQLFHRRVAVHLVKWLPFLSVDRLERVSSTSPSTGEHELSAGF

Chain of C-C chemokine receptor type 5 (P51681 whole entry): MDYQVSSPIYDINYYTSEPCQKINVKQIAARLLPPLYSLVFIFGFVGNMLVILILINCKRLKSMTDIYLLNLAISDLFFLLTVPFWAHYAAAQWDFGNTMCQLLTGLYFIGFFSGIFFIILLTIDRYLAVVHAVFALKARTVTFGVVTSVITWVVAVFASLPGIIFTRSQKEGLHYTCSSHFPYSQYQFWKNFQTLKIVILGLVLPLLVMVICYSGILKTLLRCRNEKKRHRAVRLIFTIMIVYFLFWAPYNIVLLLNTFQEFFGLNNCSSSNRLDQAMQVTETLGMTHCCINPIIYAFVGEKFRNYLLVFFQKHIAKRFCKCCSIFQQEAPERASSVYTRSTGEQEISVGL
Chain of C-C chemokine receptor type 2 (P41597 whole entry): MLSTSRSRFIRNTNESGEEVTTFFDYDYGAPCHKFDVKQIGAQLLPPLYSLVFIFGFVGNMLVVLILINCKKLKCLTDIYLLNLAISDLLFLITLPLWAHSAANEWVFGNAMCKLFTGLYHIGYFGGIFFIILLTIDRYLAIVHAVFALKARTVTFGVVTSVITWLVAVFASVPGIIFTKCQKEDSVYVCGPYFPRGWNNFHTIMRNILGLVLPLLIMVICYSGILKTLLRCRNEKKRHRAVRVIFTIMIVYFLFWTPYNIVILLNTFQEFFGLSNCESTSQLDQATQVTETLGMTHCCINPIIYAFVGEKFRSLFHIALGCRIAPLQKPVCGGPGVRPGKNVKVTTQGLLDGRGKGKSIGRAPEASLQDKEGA

## N#Cc1cccc(C(=O)NCCCN2CCC(COCc3ccc(F)cc3)CC2)c1
[1]
  IC50: 1000 nM

## O=C(NCCCN1CCC(c2ccc(F)cc2)CC1)C1=Cc2cc(Br)ccc2OCC1
[2]
  IC50: 925 nM
[3]
  IC50: 1000 nM

## O=C(NCCCCN1CCC(Oc2ccc(F)cc2)C1)NCc1ccc(Br)cc1 (configuration not stated)
[4]
  IC50: 387 nM

## O=C(NCCCCN1CCC(Cc2ccc(F)cc2)CC1)Nc1ccc(OC(F)(F)F)cc1
[2]
  IC50: 1880 nM

## COc1ccc(OC)c(S(=O)(=O)N2CCC(CN3CCN(Cc4ccc(F)cc4)CC3)CC2)c1
[3]
  IC50: 65 nM

## COc1ccc(OC)c(S(=O)(=O)N2CCC(CN3CCC(Cc4ccc(F)cc4)CC3)CC2)c1
[3]
  IC50: 1190 nM
[1]
  IC50: 2850 nM

## COc1ccc(Cl)cc1NC(=O)NCCCCN(C)Cc1ccc(F)cc1
[3]
  IC50: 82 nM

## O=C(NCCCCN1CCC(Oc2ccc(F)cc2)C1)Nc1ccc(F)c(F)c1 (configuration not stated)
[3]
  IC50: 76 nM

## COc1ccc(C)cc1S(=O)(=O)N1CCC(CN2CCC(c3ccc(F)cc3)CC2)CC1
[1]
  IC50: 1300 nM

## Cc1noc(C)c1S(=O)(=O)NCCCN1CCC(O)(c2ccc(Cl)cc2)CC1
[4]
  IC50: 261 nM

Reference: ChEMBL document CHEMBL1909560, “Design and synthesis of a library of chemokine antagonists” (Bioorg Med Chem Lett, 2011)
